Experimental data published in patent US20230085307A1, “PYRIDAZINONE COMPOUND AND HERBICIDE” (NISSAN CHEMICAL CORPORATION, priority 2019, published 2023).

Columns and labels:
[1] = tested on: barnyard grass; assay: Test Example 3: herbicidal effect by foliage application, Wagner pot (Table 18, symbol H); assay type: in vivo, barnyard grass (Echinochloa crus-galli); details: amount of applied herbicide 320 g/ha
Summary of the method: (§1)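 Plants were sown in alluvial soil held under 0.1–0.5 cm standing water and grown 14 days in a greenhouse at 25–30 °C. An emulsifiable formulation, water-diluted to the set dose, was then sprayed onto the foliage, and effects were scored three weeks later using previously defined criteria.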

[2] = tested on: velvetleaf; assay: Test Example 5: herbicidal effect by foliage application, plastic box (Table 20, symbol M); assay type: in vivo, velvetleaf (Abutilon theophrasti); details: foliage application, AAH 320 g/ha, evaluated three weeks after application
Summary of the method: (§2)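 Plants sown in sterilized diluvial soil and grown 14 days in a greenhouse at 25° C to 30° C, then sprayed on the foliage with the compound's emulsion diluted in water to a predetermined herbicide amount. Injury to weeds and crops scored three weeks after application on a visual rating scale.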

[3] = tested on: persian speedwell; assay: Test Example 5: herbicidal effect by foliage application, plastic box (Table 20, symbol R); assay type: in vivo, Persian speedwell (Veronica persica); details: foliage application, AAH 320 g/ha, evaluated three weeks after application
Summary of the method: as §2

[4] = tested on: barnyard grass; assay: Test Example 4: herbicidal effect by soil treatment (Table 19, symbol H); assay type: in vivo, barnyard grass (Echinochloa crus-galli); details: amount of applied herbicide 320 g/ha
Summary of the method: (§3)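 Three weeks of greenhouse growth at 25° C. to 30° C. followed a uniform surface spray of water-diluted emulsion at a predetermined herbicide amount. Seeds had been sown beforehand under about 1.5 cm of sterilized diluvial soil. Grading followed criteria set out in an earlier test.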

[5] = tested on: southern crabgrass; assay: Test Example 4: herbicidal effect by soil treatment (Table 19, symbol F); assay type: in vivo, southern crabgrass (Digitaria ciliaris); details: amount of applied herbicide 320 g/ha
Summary of the method: as §3

[6] = tested on: rice flat sedge; assay: Test Example 3: herbicidal effect by foliage application, Wagner pot (Table 18, symbol E); assay type: in vivo, rice flat sedge (Cyperus iria); details: amount of applied herbicide 320 g/ha
Summary of the method: as §1

[7] = tested on: green foxtail; assay: Test Example 4: herbicidal effect by soil treatment (Table 19, symbol G); assay type: in vivo, green foxtail (Setaria viridis); details: amount of applied herbicide 320 g/ha
Summary of the method: as §3

[8] = tested on: wild oat; assay: Test Example 5: herbicidal effect by foliage application, plastic box (Table 20, symbol I); assay type: in vivo, wild oat (Avena fatua); details: foliage application, AAH 320 g/ha, evaluated three weeks after application
Summary of the method: as §2

[9] = tested on: persian speedwell; assay: Test Example 4: herbicidal effect by soil treatment (Table 19, symbol R); assay type: in vivo, Persian speedwell (Veronica persica); details: amount of applied herbicide 320 g/ha
Summary of the method: as §3

[10] = tested on: windgrass; assay: Test Example 5: herbicidal effect by foliage application, plastic box (Table 20, symbol L); assay type: in vivo, windgrass (Apera spica-venti); details: foliage application, AAH 320 g/ha, evaluated three weeks after application
Summary of the method: as §2

[11] = tested on: windgrass; assay: Test Example 4: herbicidal effect by soil treatment (Table 19, symbol L); assay type: in vivo, windgrass (Apera spica-venti); details: amount of applied herbicide 320 g/ha
Summary of the method: as §3

[12] = tested on: velvetleaf; assay: Test Example 4: herbicidal effect by soil treatment (Table 19, symbol M); assay type: in vivo, velvetleaf (Abutilon theophrasti); details: amount of applied herbicide 320 g/ha
Summary of the method: as §3

[13] = tested on: lambsquarters; assay: Test Example 5: herbicidal effect by foliage application, plastic box (Table 20, symbol O); assay type: in vivo, lambsquarters (Chenopodium album); details: foliage application, AAH 320 g/ha, evaluated three weeks after application
Summary of the method: as §2

[14] = tested on: lambsquarters; assay: Test Example 4: herbicidal effect by soil treatment (Table 19, symbol O); assay type: in vivo, lambsquarters (Chenopodium album); details: amount of applied herbicide 320 g/ha
Summary of the method: as §3

[15] = tested on: southern crabgrass; assay: Test Example 5: herbicidal effect by foliage application, plastic box (Table 20, symbol F); assay type: in vivo, southern crabgrass (Digitaria ciliaris); details: foliage application, AAH 320 g/ha, evaluated three weeks after application
Summary of the method: as §2

[16] = tested on: barnyard grass; assay: Test Example 5: herbicidal effect by foliage application, plastic box (Table 20, symbol H); assay type: in vivo, barnyard grass (Echinochloa crus-galli); details: foliage application, AAH 320 g/ha, evaluated three weeks after application
Summary of the method: as §2

[17] = tested on: blackgrass; assay: Test Example 5: herbicidal effect by foliage application, plastic box (Table 20, symbol J); assay type: in vivo, blackgrass (Alopecurus myosuroides); details: foliage application, AAH 320 g/ha, evaluated three weeks after application
Summary of the method: as §2

[18] = tested on: Italian ryegrass; assay: Test Example 5: herbicidal effect by foliage application, plastic box (Table 20, symbol K); assay type: in vivo, Italian ryegrass (Lolium multiflorum); details: foliage application, AAH 320 g/ha, evaluated three weeks after application
Summary of the method: as §2

[19] = tested on: late watergrass; assay: Test Example 1: herbicidal activity, application before weed generation under submerged conditions (Table 16, symbol A); assay type: in vivo, late watergrass (Echinochloa oryzicola); details: amount of applied herbicide 320 g/ha
Summary of the method: (§4)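 Alluvial soil was flooded to 4 cm depth, weed seeds were sown mixed and 2.5-leaf rice seedlings were transplanted. On sowing day, the compound's emulsion, diluted in water to a set dose, was applied to the water surface. Plants grew at 25–30 °C and were scored 0–5 after three weeks.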

[20] = tested on: oval-leafed pondweed; assay: Test Example 1: herbicidal activity, application before weed generation under submerged conditions (Table 16, symbol C); assay type: in vivo, oval-leafed pondweed (Monochoria vaginalis); details: amount of applied herbicide 320 g/ha
Summary of the method: as §4

[21] = tested on: blackgrass; assay: Test Example 4: herbicidal effect by soil treatment (Table 19, symbol J); assay type: in vivo, blackgrass (Alopecurus myosuroides); details: amount of applied herbicide 320 g/ha
Summary of the method: as §3

[22] = tested on: chickweed; assay: Test Example 5: herbicidal effect by foliage application, plastic box (Table 20, symbol P); assay type: in vivo, common chickweed (Stellaria media); details: foliage application, AAH 320 g/ha, evaluated three weeks after application
Summary of the method: as §2

[23] = tested on: redroot pigweed; assay: Test Example 4: herbicidal effect by soil treatment (Table 19, symbol N); assay type: in vivo, redroot pigweed (Amaranthus retroflexus); details: amount of applied herbicide 320 g/ha
Summary of the method: as §3

[24] = tested on: Chinese sprangletop; assay: Test Example 3: herbicidal effect by foliage application, Wagner pot (Table 18, symbol D); assay type: in vivo, chinese sprangletop (Leptochloa chinensis); details: amount of applied herbicide 320 g/ha
Summary of the method: as §1

[25] = tested on: Japanese bulrush; assay: Test Example 1: herbicidal activity, application before weed generation under submerged conditions (Table 16, symbol B); assay type: in vivo, Japanese bulrush (Schoenoplectus juncoides); details: amount of applied herbicide 320 g/ha
Summary of the method: as §4

[26] = tested on: wild oat; assay: Test Example 4: herbicidal effect by soil treatment (Table 19, symbol I); assay type: in vivo, wild oat (Avena fatua); details: amount of applied herbicide 320 g/ha
Summary of the method: as §3

[27] = tested on: chickweed; assay: Test Example 4: herbicidal effect by soil treatment (Table 19, symbol P); assay type: in vivo, common chickweed (Stellaria media); details: amount of applied herbicide 320 g/ha
Summary of the method: as §3

[28] = tested on: Italian ryegrass; assay: Test Example 4: herbicidal effect by soil treatment (Table 19, symbol K); assay type: in vivo, Italian ryegrass (Lolium multiflorum); details: amount of applied herbicide 320 g/ha
Summary of the method: as §3

[29] = tested on: redroot pigweed; assay: Test Example 5: herbicidal effect by foliage application, plastic box (Table 20, symbol N); assay type: in vivo, redroot pigweed (Amaranthus retroflexus); details: foliage application, AAH 320 g/ha, evaluated three weeks after application
Summary of the method: as §2

[30] = tested on: green foxtail; assay: Test Example 5: herbicidal effect by foliage application, plastic box (Table 20, symbol G); assay type: in vivo, green foxtail (Setaria viridis); details: foliage application, AAH 320 g/ha, evaluated three weeks after application
Summary of the method: as §2

## COc1ccccc1-c1sc2ccc(C=O)cc2c1-c1c(O)c(C)nn(C)c1=O [2-395]
[1]
  herbicidal effect on H: barnyard grass: 3 (Herbicidal rate of 40% or more and less than 70%)
[2]
  M: velvetleaf, herbicidal effect (criteria 0-5): 5 (Herbicidal rate of 90% or more (almost completely withered))
[3]
  R: persian speedwell, herbicidal effect (criteria 0-5): 4 (Herbicidal rate of 70% or more and less than 90%)
[4]
  herbicidal effect, H: barnyard grass: 0 (Herbicidal rate of 5% or less (almost no effect))
[5]
  herbicidal effect, F: southern crabgrass: 0 (Herbicidal rate of 5% or less (almost no effect))
[6]
  herbicidal effect on E: rice flat sedge: 3 (Herbicidal rate of 40% or more and less than 70%)
[7]
  herbicidal effect, G: green foxtail: 0 (Herbicidal rate of 5% or less (almost no effect))
[8]
  I: wild oat, herbicidal effect (criteria 0-5): 0 (Herbicidal rate of 5% or less (almost no effect))
[9]
  herbicidal effect, R: persian speedwell: 0 (Herbicidal rate of 5% or less (almost no effect))
[10]
  L: windgrass, herbicidal effect (criteria 0-5): 0 (Herbicidal rate of 5% or less (almost no effect))
[11]
  herbicidal effect, L: windgrass: 0 (Herbicidal rate of 5% or less (almost no effect))
[12]
  herbicidal effect, M: velvetleaf: 0 (Herbicidal rate of 5% or less (almost no effect))
[13]
  O: lambsquarters, herbicidal effect (criteria 0-5): 5 (Herbicidal rate of 90% or more (almost completely withered))
[14]
  herbicidal effect, O: lambsquarters: 3 (Herbicidal rate of 40% or more and less than 70%)
[15]
  F: southern crabgrass, herbicidal effect (criteria 0-5): 3 (Herbicidal rate of 40% or more and less than 70%)
[16]
  H: barnyard grass, herbicidal effect (criteria 0-5): 3 (Herbicidal rate of 40% or more and less than 70%)
[17]
  J: blackgrass, herbicidal effect (criteria 0-5): 0 (Herbicidal rate of 5% or less (almost no effect))
[18]
  K: Italian ryegrass, herbicidal effect (criteria 0-5): 0 (Herbicidal rate of 5% or less (almost no effect))
[19]
  Herbicidal effect, A: late watergrass: 0 (Herbicidal rate of 5% or less (almost no effect))
[20]
  Herbicidal effect, C: oval-leafed pondweed: 0 (Herbicidal rate of 5% or less (almost no effect))
[21]
  herbicidal effect, J: blackgrass: 0 (Herbicidal rate of 5% or less (almost no effect))
[22]
  P: chickweed, herbicidal effect (criteria 0-5): 5 (Herbicidal rate of 90% or more (almost completely withered))
[23]
  herbicidal effect, N: redroot pigweed: 3 (Herbicidal rate of 40% or more and less than 70%)
[24]
  herbicidal effect on D: Chinese sprangletop: 3 (Herbicidal rate of 40% or more and less than 70%)
[25]
  Herbicidal effect, B: Japanese bulrush: 2 (Herbicidal rate of 20% or more and less than 40%)
[26]
  herbicidal effect, I: wild oat: 0 (Herbicidal rate of 5% or less (almost no effect))
[27]
  herbicidal effect, P: chickweed: 0 (Herbicidal rate of 5% or less (almost no effect))
[28]
  herbicidal effect, K: Italian ryegrass: 0 (Herbicidal rate of 5% or less (almost no effect))
[29]
  N: redroot pigweed, herbicidal effect (criteria 0-5): 5 (Herbicidal rate of 90% or more (almost completely withered))
[30]
  G: green foxtail, herbicidal effect (criteria 0-5): 4 (Herbicidal rate of 70% or more and less than 90%)
